Results from PMC6556873, “Rapid Covalent-Probe Discovery by Electrophile-Fragment Screening” (Journal of the American Chemical Society, 2019).
Like-named read-outs stand apart in the source and are kept apart here.

How the values were obtained:
in vitro [1] = test: in vitro; parameters: species or system HB2, HEK293; conditions: human, ccd841 cells
in vitro [2] = test: in vitro; parameters: species or system HB2, CCD841; conditions: human, hek293 cells
OTUB2 (OTUB2A) = biological target: T1, OTUB2 (OTUB2A) (Homo sapiens, UniProt Q96DC9); parameters: Intact protein LC/MS covalent labelling, fragments in pools of five, 200 uM each, 4 °C; conditions: 24 h, 4 °C, pool of five; 200 µM; covalent
T1 construct: full length residues 1-234, E. coli BL21(DE3)-R3, His tag removed by TEV, construct 27312 Da
T1 sequence (Q96DC9 1-234): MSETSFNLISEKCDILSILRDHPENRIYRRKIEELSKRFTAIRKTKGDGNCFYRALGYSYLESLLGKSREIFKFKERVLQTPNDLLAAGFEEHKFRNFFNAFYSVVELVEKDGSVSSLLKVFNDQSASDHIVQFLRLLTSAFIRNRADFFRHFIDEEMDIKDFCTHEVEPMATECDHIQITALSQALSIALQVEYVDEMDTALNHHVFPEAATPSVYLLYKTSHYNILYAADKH

PCAF = biological target: T2, PCAF (Homo sapiens, UniProt Q92831); parameters: Intact protein LC/MS covalent labelling, fragments in pools of five, 200 uM each, 4 °C; conditions: 24 h, 4 °C, pool of five; 200 µM; covalent
T2 construct: gene KAT2B

NUDT7 = biological target: T3, NUDT7 (Homo sapiens, UniProt P0C024); parameters: Intact protein LC/MS covalent labelling, fragments in pools of five, 200 uM each, 4 °C; conditions: 24 h, 4 °C, pool of five; 200 µM; covalent
T3 construct: residues 14-235, E. coli, pNIC28-Bsa4, N-terminal His6 tag removed by TEV, construct 26672 Da

BSA = biological target: T4, BSA (Bos taurus, UniProt P02769); parameters: Intact protein LC/MS covalent labelling, fragments in pools of five, 200 uM each, 4 °C; conditions: 24 h, 4 °C, pool of five; 200 µM; covalent
T4 construct: gene ALB

in vitro [3] = test: in vitro; parameters: species or system CCD841, HEK293; conditions: human, hb2 cells, read-out: HB-2 Cells Viability (%)

T4 sequence (P02769 whole entry, the tested form may be a part): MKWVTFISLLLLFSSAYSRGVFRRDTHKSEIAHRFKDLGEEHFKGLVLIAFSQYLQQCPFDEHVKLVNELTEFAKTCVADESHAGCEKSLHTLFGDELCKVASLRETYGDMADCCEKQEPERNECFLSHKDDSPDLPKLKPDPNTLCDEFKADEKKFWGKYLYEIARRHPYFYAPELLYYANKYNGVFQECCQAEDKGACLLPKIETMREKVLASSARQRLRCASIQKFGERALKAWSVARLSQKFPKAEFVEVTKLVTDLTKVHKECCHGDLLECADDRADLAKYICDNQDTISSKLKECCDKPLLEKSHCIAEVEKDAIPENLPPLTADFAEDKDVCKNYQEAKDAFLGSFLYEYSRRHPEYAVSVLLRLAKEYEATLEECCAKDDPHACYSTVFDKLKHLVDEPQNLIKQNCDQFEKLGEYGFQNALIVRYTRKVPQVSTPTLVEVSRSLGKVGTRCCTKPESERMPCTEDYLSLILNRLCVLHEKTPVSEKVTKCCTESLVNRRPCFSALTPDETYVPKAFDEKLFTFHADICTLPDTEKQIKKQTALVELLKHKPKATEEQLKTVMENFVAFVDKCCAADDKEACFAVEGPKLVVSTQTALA
T2 sequence (Q92831 whole entry, the tested form may be a part): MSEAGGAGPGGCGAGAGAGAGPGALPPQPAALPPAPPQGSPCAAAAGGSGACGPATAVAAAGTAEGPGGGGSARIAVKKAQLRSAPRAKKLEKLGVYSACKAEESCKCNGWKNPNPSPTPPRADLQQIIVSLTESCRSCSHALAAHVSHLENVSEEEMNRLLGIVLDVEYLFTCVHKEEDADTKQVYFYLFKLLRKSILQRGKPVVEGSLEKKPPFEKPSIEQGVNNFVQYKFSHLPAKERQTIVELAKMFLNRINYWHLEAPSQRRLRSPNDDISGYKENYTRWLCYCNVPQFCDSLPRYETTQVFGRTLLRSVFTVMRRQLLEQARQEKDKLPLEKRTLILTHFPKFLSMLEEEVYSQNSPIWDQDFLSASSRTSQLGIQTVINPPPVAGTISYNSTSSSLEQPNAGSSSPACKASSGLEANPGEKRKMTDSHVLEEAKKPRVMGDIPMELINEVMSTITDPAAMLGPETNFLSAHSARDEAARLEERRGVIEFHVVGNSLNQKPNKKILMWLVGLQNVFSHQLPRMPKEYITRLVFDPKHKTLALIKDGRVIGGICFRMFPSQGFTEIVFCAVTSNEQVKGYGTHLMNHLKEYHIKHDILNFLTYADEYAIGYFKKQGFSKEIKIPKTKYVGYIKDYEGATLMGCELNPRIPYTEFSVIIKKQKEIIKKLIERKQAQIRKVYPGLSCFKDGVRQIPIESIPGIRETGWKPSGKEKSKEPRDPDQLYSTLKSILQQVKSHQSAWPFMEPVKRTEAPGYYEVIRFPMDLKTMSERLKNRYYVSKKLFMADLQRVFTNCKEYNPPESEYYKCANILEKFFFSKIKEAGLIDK
T3 sequence (P0C024 14-235): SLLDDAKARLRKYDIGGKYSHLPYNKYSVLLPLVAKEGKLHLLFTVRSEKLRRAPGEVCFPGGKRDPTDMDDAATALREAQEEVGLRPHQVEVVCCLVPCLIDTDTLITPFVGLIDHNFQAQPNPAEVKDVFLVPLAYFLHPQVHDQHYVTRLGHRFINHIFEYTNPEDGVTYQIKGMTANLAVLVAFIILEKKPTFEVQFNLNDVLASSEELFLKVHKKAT

OTUB2 (OTUB2 (OTUB2A))	PCAF (PCAF)	NUDT7 (NUDT7)	BSA (BSA)	SMILES	viability at 48 h, 10 µM (in vitro [1])	viability at 48 h, 10 µM (in vitro [2])	viability at 48 h, 10 µM (in vitro [3])
0.06	0	0.16	0	CN(CC1COc2ccccc2O1)C(=O)CCl (centres unmarked) [PCM-0102756]	52.5%	21.7%	13.3%
0.63	0	0.05	0	O=C(CCl)NCC12CC3CC(CC(Br)(C3)C1)C2 [PCM-0102819]	95%	99.3%	109%
0.08	0	0	0	CC1CCC(NC(=O)CCl)CC1 (centres unmarked) [PCM-0102913]	86.2%	72.4%	96.2%
0.42	0	0	0	O=C(CCl)Nc1cccc2ncccc12 [PCM-0102097]	51.3%	27.9%	49%
0.42	0	0	0	C=CC(=O)N1CCC(n2ncc3ccccc32)C1 (centres unmarked) [PCM-0102966]	95.1%	86.3%	105%
0	0	0	0	C=CC(=O)Nc1nc(-c2ccccc2C)cs1 [PCM-0102845]	106%	93.4%	107%
0	0	0	0	C=CC(=O)N1CC(O)CC1c1ccccc1C(F)(F)F (centres unmarked) [PCM-0102677]	108%	109%	98.4%
0	0	0	0	C=CC(=O)N1CCC(NC(=O)c2ccncc2)CC1 [PCM-0102595]	102%	94.7%	102%
0	0	0	0	C=CC(=O)N1CCC2(CC1)NC(=O)C1(CCCCC1)N2 [PCM-0102520]	106%	107%	101%
0.84	0	0	0	O=C(CCl)NCC#Cc1cccc(C(F)(F)F)c1 [PCM-0103011]	77.4%	52.5%	56.8%
0	0	0	0	O=C(CCl)Nc1nnc(C2CC2)o1 [PCM-0102187]	114%	97.2%	106%
0	0	0.22	0	CC1CC(=O)Nc2ccccc2N1C(=O)CCl (centres unmarked) [PCM-0102697]	62.6%	52.8%	83.7%
0	0	0.1	0	CN(Cc1ccco1)C(=O)CCl [PCM-0102672]	78.1%	49.1%	51.9%
0	0	0	0	O=C(CCl)NC(=O)c1ccc(Cl)cc1 [PCM-0102711]	96.8%	103%	98.9%
0	0	0	0	Cc1cc(SC#N)cc(C)c1NC(=O)CCl [PCM-0102586]	14.2%	51.6%	27.3%
0.1	0	0	0	O=C(CCl)NC1CCN(C(=O)c2ccco2)CC1 [PCM-0102619]	101%	84.6%	105%

OTUB2 (OTUB2 (OTUB2A))	PCAF (PCAF)	NUDT7 (NUDT7)	BSA (BSA)	SMILES	viability at 48 h, 10 µM (in vitro [1])	viability at 48 h, 10 µM (in vitro [2])	viability at 48 h, 10 µM (in vitro [3])
0	0	0	0	O=C(CCl)NC(=O)NC1CC1 [PCM-0102411]	84.9%	109%	96.7%
0	0	0	0	Cc1ccc(S(C)(=O)=O)cc1NC(=O)CCl [PCM-0102858]	66.6%	19.2%	58.6%
0	0	0	0	O=C(CCl)NCc1cc(F)cc(F)c1 [PCM-0102790]	71.3%	74.1%	98.6%
0	0	0	0	C=CC(=O)N1CC(c2nc(C)no2)C1 [PCM-0102599]	102%	90.9%	108%
0	0	0	0.08	C=CC(=O)NC1(C(=O)N2CCN(C)CC2)CCCC1 [PCM-0103054]	109%	110%	99.9%
0.17	0	0	0	C=CC(=O)N1CC(OC(=O)Nc2cccc(F)c2)C1 [PCM-0102688]	99%	95.8%	82.3%
0.23	0	0	0	O=C(CCl)NCC1CCS(=O)(=O)C1 (centres unmarked) [PCM-0102896]	92.3%	117%	102%
0	0	0.08	0	Cl.O=C(CCl)N1CCN(Cc2cccs2)CC1 [PCM-0102243]	77.1%	43.5%	45.7%
0.3	0	0	0	O=C(CCl)NC(=O)NCC(F)(F)F [PCM-0103037]	78.2%	95.7%	89%
0.06	0	0.19	0	Cc1ccc(C)c(S(=O)(=O)N2CCN(C(=O)CCl)CC2)c1 [PCM-0102353]	37.7%	3.2%	2.1%
0	0	0.11	0	N#CC(c1ccccc1)N1CCN(C(=O)CCl)CC1 (centres unmarked) [PCM-0102381]	66.2%	31.9%	46.7%
0	0	0.08	0	O=C(CCl)N(C1CCCCC1)C1CCS(=O)(=O)C1 (centres unmarked) [PCM-0102760]	31.1%	17.4%	49.7%
0.11	0	0.1	0	Cc1cc([N+](=O)[O-])ccc1NC(=O)CCl [PCM-0102134]	60.9%	18.1%	44.3%
0.08	0	0.11	0	O=C(CCl)Nc1ccc(Br)cc1 [PCM-0102992]	52.9%	4.4%	12.2%
0.15	0	0.12	0	NC(=O)C1CN(C(=O)CCl)c2ccccc2O1 (centres unmarked) [PCM-0102245]	60.8%	31.8%	58.4%
0.13	0	0	0	Cc1sc2nc(-c3cccc(NC(=O)CCl)c3)[nH]c(=O)c2c1C [PCM-0102264]	92.8%	61.2%	64.6%
